# ± gives the expanded uncertainty stated by the source.
# Conditions: Liquid, Closed cell (Static) method
compound,measurement,setting,value
CCCO [propan-1-ol],vapor or sublimation pressure,318.58 K,9.47 ± 0.17 kPa
same,vapor or sublimation pressure,323.07 K,12.07 ± 0.18 kPa
same,vapor or sublimation pressure,323.26 K,12.27 ± 0.18 kPa
same,vapor or sublimation pressure,330.16 K,17.57 ± 0.19 kPa
same,vapor or sublimation pressure,331.92 K,19.07 ± 0.18 kPa
same,vapor or sublimation pressure,332.05 K,19.17 ± 0.18 kPa
C=C(C)C [2-methylpropene],vapor or sublimation pressure,323.07 K,607.94 ± 2.1 kPa
CCCC [butane],vapor or sublimation pressure,330.16 K,592.44 ± 2.6 kPa
C/C=C/C [(E)-2-butene],vapor or sublimation pressure,332.05 K,606.54 ± 2.2 kPa
CC(C)C [2-methylpropane],vapor or sublimation pressure,318.59 K,610.84 ± 2.1 kPa
C/C=C\C [(Z)-2-butene],vapor or sublimation pressure,331.92 K,561.34 ± 2.1 kPa
C=CCC [1-butene],vapor or sublimation pressure,323.27 K,596.14 ± 2.1 kPa

# From the NIST ThermoML archive (doi:10.1021/je049959i)
